{"source": "EPA's ToxValDB 9.5 (doi:10.2903/j.efsa.2009.179r)", "key": {"Oryctolagus sp.": {"system": "Oryctolagus sp.", "settings": "acute; oral; mortality"}, "Rattus norvegicus": {"system": "Rattus norvegicus", "settings": "reproduction developmental"}, "Daphnia magna": {"system": "Daphnia magna", "settings": "chronic/long-term; duration: 21 days; reproduction"}, "Canidae": {"system": "Canidae", "settings": "Dog Other, clinical signs"}, "Apis mellifera": {"system": "Apis mellifera", "settings": "acute; duration: 48 hours; dermal; mortality"}, "Aphidius rhopalosiphi": {"system": "Aphidius rhopalosiphi", "assay": "LR50; higher = less toxic", "settings": "not reported; mortality"}}}
{"smiles": "C[N+](C)(C)CCCl.[Cl-]", "note": "[Chlormequat chloride]", "values": [{"measurement": "LC50", "setting": "Oncorhynchus mykiss; acute, duration: 96 hours, mortality", "value": "> 100", "unit": "µg/mL"}, {"measurement": "NOEC", "setting": "Oncorhynchus mykiss; chronic/long-term, duration: 21 days, growth", "value": 43.1, "unit": "mg/L"}, {"measurement": "LD50", "setting": "Oryctolagus sp.", "value": 115, "unit": "mg/kg-day"}, {"measurement": "NOAEL", "setting": "Rattus norvegicus; body weight", "value": 41, "unit": "mg/kg-day"}, {"measurement": "NOAEL", "setting": "Rattus norvegicus; reproduction", "value": 74, "unit": "mg/kg-day"}, {"measurement": "NOEC", "setting": "Daphnia magna", "value": 2.4, "unit": "mg/L"}, {"measurement": "NOAEL", "setting": "Canidae; chronic, duration: 1 years, oral", "value": 4, "unit": "mg/kg-day"}, {"measurement": "NOAEL", "setting": "Canidae; short-term, duration: 4 weeks", "value": 9, "unit": "mg/kg-day"}, {"measurement": "LC50", "setting": "Coturnix japonica; acute, oral, diet, mortality", "value": "> 310", "unit": "mg/kg-day"}, {"measurement": "LD50", "setting": "Coturnix japonica; acute, oral, mortality", "value": 441, "unit": "mg/kg-day"}, {"measurement": "NOEC", "setting": "Coturnix japonica; reproduction developmental", "value": 54.8, "unit": "mg/kg-day"}, {"measurement": "LC50", "setting": "Tagia sp.; acute, duration: 14 days, mortality", "value": 320, "unit": "mg/kg"}, {"measurement": "NOEC", "setting": "Tagia sp.; chronic/long-term, duration: 56 days", "value": 680, "unit": "mg/kg"}, {"measurement": "LD50", "setting": "Apis mellifera", "value": "> 65.2", "unit": "µg/piece"}, {"measurement": "LR50", "setting": "Aphidius rhopalosiphi", "value": "> 2200", "unit": "g/ha"}]}
